Here are results for ten compounds from patent US9533991B2, “Inhibitors of Bruton's tyrosine kinase” (PHARMACYCLICS LLC, priority 2014, dated 2017).

A value given as a limit tells only on which side of the number the result lay.

Holding throughout (format): biochemical
Test [1] addresses T1, Btk (Homo sapiens, UniProt Q06187). The experiment in a line: Inhibition of a panel of kinases: Btk. Conditions: kinase panel, Table 2. The method, then:
(§1) The degree of inhibition of a panel of kinases is determined using assays similar to the kinase assay described in Example 53.

The target in another test is EGFR (Homo sapiens, UniProt P00533). The experiment in a line: Inhibition of a panel of kinases: EGFR. Conditions: kinase panel, Table 2. The method, then:
as §1

Another test addresses LCK (Homo sapiens, UniProt P06239). Description: Inhibition of a panel of kinases: LCK. As to conditions: kinase panel, Table 2. The method, then: as §1
The next test deals with T2, JAK3 (Homo sapiens, UniProt P52333).
T2 sequence (P52333 1-1124): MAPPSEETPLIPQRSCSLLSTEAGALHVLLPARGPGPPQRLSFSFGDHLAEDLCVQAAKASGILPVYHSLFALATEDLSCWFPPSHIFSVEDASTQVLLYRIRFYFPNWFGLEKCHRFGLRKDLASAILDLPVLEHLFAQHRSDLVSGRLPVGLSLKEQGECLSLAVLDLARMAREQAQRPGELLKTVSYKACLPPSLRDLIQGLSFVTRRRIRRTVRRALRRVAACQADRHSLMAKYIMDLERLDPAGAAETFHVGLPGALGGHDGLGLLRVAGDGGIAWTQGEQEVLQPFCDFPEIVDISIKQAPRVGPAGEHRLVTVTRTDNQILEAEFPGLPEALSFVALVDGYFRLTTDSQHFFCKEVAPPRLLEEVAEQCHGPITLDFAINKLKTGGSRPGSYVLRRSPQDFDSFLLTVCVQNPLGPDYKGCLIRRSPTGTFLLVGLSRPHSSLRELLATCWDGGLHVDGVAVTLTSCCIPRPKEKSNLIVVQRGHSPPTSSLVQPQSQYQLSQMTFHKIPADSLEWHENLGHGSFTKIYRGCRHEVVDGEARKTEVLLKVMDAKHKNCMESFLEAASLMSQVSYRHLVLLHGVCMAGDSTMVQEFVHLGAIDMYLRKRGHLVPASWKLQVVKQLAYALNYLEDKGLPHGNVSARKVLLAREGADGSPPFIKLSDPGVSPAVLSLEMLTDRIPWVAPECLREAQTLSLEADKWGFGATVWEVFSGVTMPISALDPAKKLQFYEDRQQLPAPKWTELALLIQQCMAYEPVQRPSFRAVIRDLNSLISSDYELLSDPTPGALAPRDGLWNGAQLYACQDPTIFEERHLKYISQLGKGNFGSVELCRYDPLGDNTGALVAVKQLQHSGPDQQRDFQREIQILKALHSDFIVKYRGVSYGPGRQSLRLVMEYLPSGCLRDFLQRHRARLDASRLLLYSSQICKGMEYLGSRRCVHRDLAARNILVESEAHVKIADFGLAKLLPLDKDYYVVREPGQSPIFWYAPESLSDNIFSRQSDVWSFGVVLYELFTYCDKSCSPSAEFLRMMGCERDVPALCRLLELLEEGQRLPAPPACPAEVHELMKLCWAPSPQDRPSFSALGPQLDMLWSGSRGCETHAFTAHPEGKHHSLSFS
Description: Inhibition of a panel of kinases: JAK3. Conditions: kinase panel, Table 2. The method, then: as §1

The target in test [2] is T1, Btk. Description: Btk in vitro inhibitory activity (Method A, B or C). Details: purified from insect cells as a full-length construct containing a N-terminal 6×-His tag; His6 (N); made in house; host or cells: insect cells (baculovirus, Sf21). As to conditions: one of the methods of Example 53a, 53b, 53c. The method, then: Btk kinase activity is determined using a time-resolved fluorescence resonance energy transfer (TR-FRET) methodology. Measurements are performed in a reaction volume of 50 μL using 96-well assay plates. Kinase enzyme, inhibitor, ATP (at the Km for the kinase), and 1 μM peptide substrate (Biotin-AVLESEEELYSSARQ-NH2 (SEQ ID NO: 1)) are incubated in a reaction buffer composed of 20 mM Tris, 50 mM NaCl, MgCl2 (5-25 mM depending on the kinase), MnCl2 (0-10 mM), 1 mM DTT, 0.1 mM EDTA, 0.01% bovine serum albumin, 0.005% Tween-20, and 10% DMSO at pH 7.4 for one hour. The reaction is quenched by the addition of 1.2 equivalents of EDTA (relative to divalent cation) in 25 μL of 1× Lance buffer (Perkin-Elmer). Streptavidin-APC (Perkin-Elmer) and Eu-labeled p-Tyr100 antibody (Perkin-Elmer) in 1× Lance buffer are added in a 25 μL volume to give final concentrations of 100 nM and 2.5 nM, respectively, and the mixture is allowed to incubate for one hour. The TR-FRET signal is measured on a multimode plate reader with an excitation wavelength (λEx) of 330 nm and detection wavelengths (λEm) of 615 and 665 nm. Activity is determined by the ratio of the fluorescence at 665 nm to that at 615 nm. For each compound, enzyme activity is measured at various concentrations of compound. Negative control reactions are performed in the absence of inhibitor in replicates of six, and two no-enzyme controls are used to determine baseline fluorescence levels. Inhibition constants, Ki(app), ware obtained using the program BatchKi (Kuzmic et al. (2000), Anal. Biochem. 286:45-50). IC50s are obtained according to the equation: IC50={Ki(app)/1+[ATP]/Km^ATP)}+[E]total/2;
For all kinases, [ATP]=Km^ATP, [Btk]total=0.5 nM and [Lck]total=6 nM.
Kinase activity is measured in vitro using electrophoretic mobility shift assay. The kinase reactions are assembled in a total volume of 25 μL in 384 well plates. The reactions comprise: BTK enzyme (1 nM, N-terminal His6-tagged, recombinant, full-length, human BTK purified from baculovirus Sf21 insect cell system), inhibitor, ATP (16 μM, the apparent Km for the kinase), fluorescently labeled peptide substrate (1 μM, FAM-GEEPLYWSFPAKKK-NH2 (SEQ ID NO: 2)) in a reaction buffer composed of 100 mM HEPES, pH7.5, 5 mM MgCl2 1 mM DTT, 0.1% bovine serum albumin, 0.01% Triton X-100, and 1% DMSO. The reaction is incubated for one hour and is quenched by the addition of 45 μL of termination buffer (100 mM HEPES, pH7.5, 0.01% Triton X-100, 30 mM EDTA). The terminated reactions are analyzed using 12 channel LabChip® 3000 microfluidic detection instrument (Caliper Life Sciences). The enzymatic phosphorylation of the peptide results in a change in net charge, enabling electrophoretic separation of product from substrate peptide. As substrate and product peptides are separated, two peaks of fluorescence are observed. Change in the relative fluorescence intensity of the substrate and product peaks is the parameter measured, reflecting enzyme activity. In the presence of an inhibitor, the ratio between product and substrate is altered: the signal of the product decreases, while the signal of the substrate increases.
Activity in each sample is determined as the product to sum ratio (PSR):P/(S+P), where P is the peak height of the product peptide and S is the peak height of the substrate peptide. For each compound, enzyme activity is measured at various concentrations (12 concentrations of compound spaced by 3× dilution intervals). Negative control samples (0%−inhibition in the absence of inhibitor) and positive control samples (100%−inhibition, in the presence of 20 mM EDTA) are assembled in replicates of four and are used to calculate %−inhibition values for each inhibitor at each concentration. Percent inhibition (Pinh) is determined using following equation: […]

The term IC50 denotes the concentration that inhibits the measured activity by half. Read a low IC50 as greater potency in that assay.

Sequence of LCK (P06239 whole entry, species assumed): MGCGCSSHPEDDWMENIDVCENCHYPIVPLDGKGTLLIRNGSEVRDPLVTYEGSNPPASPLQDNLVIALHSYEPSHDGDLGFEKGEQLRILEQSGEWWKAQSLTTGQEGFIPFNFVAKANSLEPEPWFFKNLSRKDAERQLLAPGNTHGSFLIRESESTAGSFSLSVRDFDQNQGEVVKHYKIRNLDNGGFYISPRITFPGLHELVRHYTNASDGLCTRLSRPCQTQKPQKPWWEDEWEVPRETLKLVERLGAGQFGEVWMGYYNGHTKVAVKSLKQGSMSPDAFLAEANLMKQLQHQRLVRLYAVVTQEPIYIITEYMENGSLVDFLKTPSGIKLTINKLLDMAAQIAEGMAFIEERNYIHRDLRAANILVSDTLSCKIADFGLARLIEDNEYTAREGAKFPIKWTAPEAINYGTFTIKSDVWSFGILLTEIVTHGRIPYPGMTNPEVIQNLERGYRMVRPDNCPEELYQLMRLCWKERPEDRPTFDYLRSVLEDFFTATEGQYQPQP
T1 sequence (Q06187 whole entry): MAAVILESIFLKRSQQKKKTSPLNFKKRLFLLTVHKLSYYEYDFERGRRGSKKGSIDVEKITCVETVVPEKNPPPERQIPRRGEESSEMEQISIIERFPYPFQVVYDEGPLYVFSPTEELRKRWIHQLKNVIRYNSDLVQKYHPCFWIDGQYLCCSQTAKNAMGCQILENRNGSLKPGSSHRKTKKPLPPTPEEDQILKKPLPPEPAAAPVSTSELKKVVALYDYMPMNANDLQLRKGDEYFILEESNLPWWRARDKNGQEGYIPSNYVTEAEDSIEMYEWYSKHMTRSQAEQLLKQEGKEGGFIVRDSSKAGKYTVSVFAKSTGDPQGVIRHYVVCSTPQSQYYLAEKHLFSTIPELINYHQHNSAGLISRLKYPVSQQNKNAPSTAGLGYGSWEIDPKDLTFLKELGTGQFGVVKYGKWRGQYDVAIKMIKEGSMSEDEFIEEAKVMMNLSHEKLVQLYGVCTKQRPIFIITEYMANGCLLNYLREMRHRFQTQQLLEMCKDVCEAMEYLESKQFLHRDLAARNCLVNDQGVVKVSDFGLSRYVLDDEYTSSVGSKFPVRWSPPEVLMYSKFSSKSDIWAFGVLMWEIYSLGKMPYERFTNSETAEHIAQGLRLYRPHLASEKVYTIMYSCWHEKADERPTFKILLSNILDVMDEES
Sequence of EGFR (P00533 25-1210, species assumed): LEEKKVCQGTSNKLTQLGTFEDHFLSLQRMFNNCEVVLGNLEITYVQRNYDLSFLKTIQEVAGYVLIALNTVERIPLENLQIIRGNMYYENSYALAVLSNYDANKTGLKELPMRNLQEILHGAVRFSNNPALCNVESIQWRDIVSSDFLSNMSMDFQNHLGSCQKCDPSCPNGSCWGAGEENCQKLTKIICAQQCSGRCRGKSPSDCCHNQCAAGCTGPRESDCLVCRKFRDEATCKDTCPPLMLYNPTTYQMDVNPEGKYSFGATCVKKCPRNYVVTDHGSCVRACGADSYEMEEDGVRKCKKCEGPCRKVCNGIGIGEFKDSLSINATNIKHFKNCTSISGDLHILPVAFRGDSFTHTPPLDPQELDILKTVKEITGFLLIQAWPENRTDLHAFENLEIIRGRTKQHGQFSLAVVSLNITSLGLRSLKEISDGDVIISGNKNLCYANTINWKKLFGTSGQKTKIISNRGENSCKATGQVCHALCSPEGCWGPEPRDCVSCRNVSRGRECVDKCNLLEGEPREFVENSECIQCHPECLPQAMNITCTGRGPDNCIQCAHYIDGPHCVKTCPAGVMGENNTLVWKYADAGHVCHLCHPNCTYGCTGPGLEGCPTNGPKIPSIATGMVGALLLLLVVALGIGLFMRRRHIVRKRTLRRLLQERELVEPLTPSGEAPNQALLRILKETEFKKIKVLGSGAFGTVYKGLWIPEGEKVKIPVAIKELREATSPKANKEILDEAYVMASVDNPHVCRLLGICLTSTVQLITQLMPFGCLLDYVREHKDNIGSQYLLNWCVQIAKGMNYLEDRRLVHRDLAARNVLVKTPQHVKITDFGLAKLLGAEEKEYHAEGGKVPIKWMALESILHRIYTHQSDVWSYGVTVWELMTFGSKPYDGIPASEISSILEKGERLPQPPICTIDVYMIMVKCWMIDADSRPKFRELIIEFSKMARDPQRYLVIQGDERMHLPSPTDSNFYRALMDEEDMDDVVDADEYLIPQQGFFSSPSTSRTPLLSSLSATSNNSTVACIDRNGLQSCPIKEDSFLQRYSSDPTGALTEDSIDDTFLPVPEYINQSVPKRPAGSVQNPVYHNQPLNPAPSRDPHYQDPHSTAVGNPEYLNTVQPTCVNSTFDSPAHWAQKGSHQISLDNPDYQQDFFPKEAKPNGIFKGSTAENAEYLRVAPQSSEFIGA

Consider `CC#CC(=O)N1CC[C@@H](n2nc(-c3ccc(C(=O)Nc4cc(C)ccn4)cc3)c3c(N)ncnc32)C1` [Compound ID 2, (R)-4-(4-amino-1-(1-but-2-ynoylpyrrolidin-3-yl)-1H-pyrazolo[3,4-d]pyrimidin-3-yl)-N-(4-methylpyridin-2-yl)benzamide], for which the half-maximal inhibitory concentration (IC50) on Btk [1] is not above 0.01 µM; on EGFR it was more than 1 µM; against LCK, 0.1 to 1 µM; against JAK3 it was more than 1 µM; at Btk [2] it was not above 0.01 µM.
For `CC#CC(=O)N1CC[C@@H](n2nc(-c3ccc(C(=O)Nc4cc(C(F)(F)F)ccn4)cc3)c3c(N)ncnc32)C1` [Compound ID 1, (R)-4-(4-amino-1-(1-but-2-ynoylpyrrolidin-3-yl)-1H-pyrazolo[3,4-d]pyrimidin-3-yl)-N-(4-(trifluoromethyl)pyridin-2-yl)benzamide], the IC50 on Btk [1] is not above 0.01 µM; against EGFR, 0.1 to 1 µM; on LCK it was 0.1 to 1 µM; against JAK3, more than 1 µM; against Btk [2] it was not above 0.01 µM.
With `CCC#CC(=O)N1CC[C@@H](n2nc(-c3ccc(C(=O)Nc4cc(C)ccn4)cc3)c3c(N)ncnc32)C1` [Compound ID 7, (R)-4-(4-amino-1-(1-pent-2-ynoylpyrrolidin-3-yl)-1H-pyrazolo[3,4-d]pyrimidin-3-yl)-N-(4-methylpyridin-2-yl)benzamide], the IC50 against Btk [1] was not above 0.01 µM; against EGFR, more than 1 µM; on LCK, more than 1 µM; against JAK3, more than 1 µM; at Btk [2], not above 0.01 µM.
As for `Cc1ccnc(NC(=O)c2ccc(-c3nn([C@@H]4CCN(C(=O)C#CC5CC5)C4)c4ncnc(N)c34)cc2)c1` [Compound ID 8, (R)-4-(4-amino-1-(1-(3-cyclopropylpropioloyl)pyrrolidin-3-yl)-1H-pyrazolo[3,4-d]pyrimidin-3-yl)-N-(4-methylpyridin-2-yl)benzamide], the IC50 at Btk [1] is not above 0.01 µM; on EGFR, 0.1 to 1 µM; at LCK, more than 1 µM; on JAK3, more than 1 µM; against Btk [2] it was not above 0.01 µM.
As for `CC#CC(=O)N1CC[C@@H](n2nc(-c3ccc(C(=O)Nc4cc(C(C)C)ccn4)cc3)c3c(N)ncnc32)C1` [Compound ID 4, (R)-4-(4-amino-1-(1-but-2-ynoylpyrrolidin-3-yl)-1H-pyrazolo[3,4-d]pyrimidin-3-yl)-N-(4-isopropylpyridin-2-yl)benzamide], the IC50 at Btk [1] is not above 0.01 µM; against EGFR it was more than 1 µM; at LCK, 0.1 to 1 µM; on JAK3, more than 1 µM; against Btk [2] it was not above 0.01 µM.
Turning to `CC#CC(=O)N1CC[C@@H](n2nc(-c3ccc(C(=O)Nc4cc(C#N)ccn4)cc3)c3c(N)ncnc32)C1` [Compound ID 5, (R)-4-(4-amino-1-(1-but-2-ynoylpyrrolidin-3-yl)-1H-pyrazolo[3,4-d]pyrimidin-3-yl)-N-(4-cyanopyridin-2-yl)benzamide], the IC50 against Btk [1] was not above 0.01 µM; on EGFR it was more than 1 µM; on LCK, 0.1 to 1 µM; against JAK3, more than 1 µM; at Btk [2] it was not above 0.01 µM.
Turning to `CC#CC(=O)N1CCC[C@@H](n2nc(-c3ccc(C(=O)Nc4cc(CCC)ccn4)cc3)c3c(N)ncnc32)C1` [Compound ID 13, (R)-4-(4-amino-1-(1-but-2-ynoylpiperidin-3-yl)-1H-pyrazolo[3,4-d]pyrimidin-3-yl)-N-(4-propylpyridin-2-yl)benzamide], the IC50 at Btk [1] was not above 0.01 µM; on EGFR, 0.1 to 1 µM; on LCK, not above 0.01 µM; against Btk [2], not above 0.01 µM.
With `CC#CC(=O)N1CCC[C@@H](n2nc(-c3ccc(C(=O)Nc4cc(C(F)(F)F)ccn4)cc3)c3c(N)ncnc32)C1` [Compound ID 12, (R)-4-(4-amino-1-(1-but-2-ynoylpiperidin-3-yl)-1H-pyrazolo[3,4-d]pyrimidin-3-yl)-N-(4-(trifluoromethyl)pyridin-2-yl)benzamide], the IC50 is not above 0.01 µM at Btk [1], 0.1 to 1 µM against EGFR, 0.01 to 0.1 µM at LCK and not above 0.01 µM at Btk [2].
Take `C=CC(=O)N1CC[C@@H](n2nc(-c3ccc(C(=O)Nc4ccccn4)cc3)c3c(N)ncnc32)C1` [Compound ID 22, (R)-4-(1-(1-acryloylpyrrolidin-3-yl)-4-amino-1H-pyrazolo[3,4-d]pyrimidin-3-yl)-N-(pyridin-2-yl)benzamide]: the IC50 was not above 0.01 µM at Btk [1], not above 0.01 µM against EGFR, 0.1 to 1 µM against LCK and not above 0.01 µM at Btk [2].
For `CC#CC(=O)N1CCC[C@@H](n2nc(-c3ccc(C(=O)Nc4ncc(C)s4)cc3)c3c(N)ncnc32)C1` [Compound ID 17, (R)-4-(4-amino-1-(1-but-2-ynoylpiperidin-3-yl)-1H-pyrazolo[3,4-d]pyrimidin-3-yl)-N-(5-methylthiazol-2-yl)benzamide], the IC50 against Btk [1] is not above 0.01 µM; against EGFR, not above 0.01 µM; against LCK, 0.1 to 1 µM; at Btk [2], not above 0.01 µM.
